# Assays:
# Assay in all cases: relative viability (nuclei count vs DMSO), 5 days (fraction); higher = more cells survive
# GSK-J4 + Decitabine = compound: CCOC(=O)CCNc1cc(N2CCc3ccccc3CC2)nc(-c2ccccn2)n1 [GSK-J4] + Nc1ncn([C@H]2C[C@H](O)[C@@H](CO)O2)c(=O)n1 [Decitabine] (partner 2 µM)
# Method in brief: (§1)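 Cells from lung cancer lines were seeded into 1536-well plates and, one day later, dosed by pin tool. Treatments were either a single drug or a fixed dose of an anchor drug with five library-drug doses (not always all listed) in √10 steps. After 5 days, nuclei were stained in a one-step fixation (final 0.05% Triton X-100, 1% formaldehyde, 1 ug/ml Hoechst) and counted on 4× images, and relative viability is the treated-to-vehicle nuclei ratio, as the median of duplicate plates.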
# AZ3146 + Decitabine = compound: CN1CCC(CC1)OC2=CC(=C(C=C2)NC3=NC=C4C(=N3)N(C(=O)N4C)C5CCCC5)OC [AZ3146] + Nc1ncn([C@H]2C[C@H](O)[C@@H](CO)O2)c(=O)n1 [Decitabine] (partner 2 µM)
# Method in brief: as §1
# GSK-J4 + Foretinib = compound: CCOC(=O)CCNc1cc(N2CCc3ccccc3CC2)nc(-c2ccccn2)n1 [GSK-J4] + COc1cc2c(Oc3ccc(NC(=O)C4(C(=O)Nc5ccc(F)cc5)CC4)cc3F)ccnc2cc1OCCCN1CCOCC1 [Foretinib] (partner 0.25 µM)
# Method in brief: as §1
# AZ3146 + Navitoclax = compound: CN1CCC(CC1)OC2=CC(=C(C=C2)NC3=NC=C4C(=N3)N(C(=O)N4C)C5CCCC5)OC [AZ3146] + CC1(C)CCC(c2ccc(Cl)cc2)=C(CN2CCN(c3ccc(C(=O)NS(=O)(=O)c4ccc(N[C@H](CCN5CCOCC5)CSc5ccccc5)c(S(=O)(=O)C(F)(F)F)c4)cc3)CC2)C1 [Navitoclax] (partner 0.5 µM)
# Method in brief: as §1
Cell Line,relative viability (GSK-J4 + Decitabine; first compound 0.5 µM),relative viability (GSK-J4 + Decitabine; first compound 1.581 µM),relative viability (GSK-J4 + Decitabine; first compound 5 µM),relative viability (GSK-J4 + Decitabine; first compound 15.81 µM),relative viability (GSK-J4 + Decitabine; first compound 50 µM),relative viability (AZ3146 + Decitabine; first compound 0.08 µM),relative viability (AZ3146 + Decitabine; first compound 0.253 µM),relative viability (AZ3146 + Decitabine; first compound 0.8 µM),relative viability (AZ3146 + Decitabine; first compound 2.53 µM),relative viability (AZ3146 + Decitabine; first compound 8 µM),relative viability (GSK-J4 + Foretinib; first compound 0.5 µM),relative viability (GSK-J4 + Foretinib; first compound 1.581 µM),relative viability (GSK-J4 + Foretinib; first compound 5 µM),relative viability (GSK-J4 + Foretinib; first compound 15.81 µM),relative viability (GSK-J4 + Foretinib; first compound 50 µM),relative viability (AZ3146 + Navitoclax; first compound 0.08 µM),relative viability (AZ3146 + Navitoclax; first compound 0.253 µM),relative viability (AZ3146 + Navitoclax; first compound 0.8 µM),relative viability (AZ3146 + Navitoclax; first compound 2.53 µM),relative viability (AZ3146 + Navitoclax; first compound 8 µM)
LXF-289,0.388,0.376,0.403,0.394,0.406,0.356,0.382,0.403,0.432,0.388,0.974,0.93,1.01,0.929,0.924,0.94,1.03,0.883,0.943,0.926
NCI-H23,0.261,0.271,0.303,0.279,0.282,0.329,0.313,0.324,0.354,0.425,0.999,0.885,0.942,0.802,0.847,0.751,0.687,0.786,0.86,0.993
NCI-H322M,0.687,0.687,0.81,0.379,0.671,0.604,0.671,0.727,0.698,0.721,1.01,0.884,1.27,0.815,0.712,1.24,1.12,1.1,1.24,1.23
NCI-H441,0.203,0.279,0.205,0.217,0.271,0.203,0.284,0.259,0.254,0.237,0.962,0.875,1.1,0.906,0.759,0.416,0.576,0.53,0.547,0.683
NCI-H460,0.444,–,0.411,0.429,0.47,0.38,0.475,0.445,0.467,0.178,0.977,0.81,0.732,1,0.871,1.1,1.21,1.14,1.08,0.298
NCI-H520,0.51,0.336,0.541,0.502,0.446,0.468,0.607,0.536,0.511,0.359,0.691,0.689,0.811,0.613,0.626,1.18,1.06,1.04,1.1,0.981
NCI-H596,0.923,1.03,0.906,0.773,1.02,0.91,0.92,1.2,1.3,1.03,0.928,0.657,0.892,0.673,0.823,1.02,0.884,0.9,0.95,0.929
NCI-H647,0.376,0.393,0.374,0.337,0.496,0.359,0.521,0.381,0.441,0.329,1.1,0.855,1.07,1.2,1.09,1.06,1.07,1.16,1.1,0.893
NCI-H727,0.856,0.753,0.904,0.87,0.611,0.806,0.913,0.714,0.766,0.783,0.808,0.835,1.03,0.99,0.518,0.501,0.476,0.431,0.436,0.413
NCI-H838,0.459,0.363,0.407,0.406,0.316,0.46,0.474,0.422,0.501,0.281,1.03,1.02,–,0.853,0.738,1.12,1.19,1.17,1.13,0.93
NCI-H1355,0.354,0.364,0.342,0.325,0.335,0.336,0.32,0.362,0.423,0.361,0.878,0.837,1.08,0.839,0.859,0.974,0.872,1.04,0.922,1.01
NCI-H1395,0.781,0.718,0.632,0.751,0.661,0.642,0.746,–,0.864,0.849,0.937,0.983,0.865,0.973,0.946,1.21,0.924,0.985,1.09,1.18
NCI-H1437,0.574,0.363,0.564,0.552,0.358,0.536,0.533,0.598,0.531,0.481,1.29,0.715,1.23,1.24,0.766,1.02,1.09,1.07,1.13,1.14
NCI-H1650,0.522,0.343,0.423,0.416,0.294,0.377,0.44,0.366,0.44,0.367,1.07,0.456,1.18,1.03,0.949,1.21,1.34,1.26,1.38,1.19
NCI-H1651,0.599,0.622,0.599,0.537,0.508,0.532,0.634,0.549,0.543,0.617,0.765,0.905,0.922,0.663,0.8,1.03,1.07,1,0.995,1.1
NCI-H1666,0.747,0.726,0.84,0.666,0.674,0.666,0.706,0.679,0.673,0.711,0.998,0.742,1.08,0.907,0.749,0.859,0.805,0.951,1.05,0.81

Cell Line,relative viability (GSK-J4 + Decitabine; first compound 0.5 µM),relative viability (GSK-J4 + Decitabine; first compound 1.581 µM),relative viability (GSK-J4 + Decitabine; first compound 5 µM),relative viability (GSK-J4 + Decitabine; first compound 15.81 µM),relative viability (GSK-J4 + Decitabine; first compound 50 µM),relative viability (AZ3146 + Decitabine; first compound 0.08 µM),relative viability (AZ3146 + Decitabine; first compound 0.253 µM),relative viability (AZ3146 + Decitabine; first compound 0.8 µM),relative viability (AZ3146 + Decitabine; first compound 2.53 µM),relative viability (AZ3146 + Decitabine; first compound 8 µM),relative viability (GSK-J4 + Foretinib; first compound 0.5 µM),relative viability (GSK-J4 + Foretinib; first compound 1.581 µM),relative viability (GSK-J4 + Foretinib; first compound 5 µM),relative viability (GSK-J4 + Foretinib; first compound 15.81 µM),relative viability (GSK-J4 + Foretinib; first compound 50 µM),relative viability (AZ3146 + Navitoclax; first compound 0.08 µM),relative viability (AZ3146 + Navitoclax; first compound 0.253 µM),relative viability (AZ3146 + Navitoclax; first compound 0.8 µM),relative viability (AZ3146 + Navitoclax; first compound 2.53 µM),relative viability (AZ3146 + Navitoclax; first compound 8 µM)
NCI-H1734,0.542,0.447,0.507,0.492,0.376,0.4,0.499,0.429,0.5,0.484,0.821,0.787,0.849,0.707,0.619,0.821,0.828,0.831,0.847,0.846
NCI-H1755,0.727,0.569,0.641,0.61,0.709,0.68,0.716,0.739,0.842,0.839,0.906,0.817,0.861,0.878,0.837,0.992,1,0.948,1.03,1.01
NCI-H1793,0.394,0.371,0.305,0.204,0.196,0.252,0.523,0.456,0.283,0.488,0.801,0.575,0.737,0.423,0.514,0.437,0.311,0.46,0.492,0.436
NCI-H1915,0.253,0.235,–,0.239,0.247,0.267,0.27,0.266,0.251,0.264,1.04,1.03,–,1.06,0.523,0.783,0.807,0.807,0.816,0.814
NCI-H1944,0.411,0.381,–,0.367,0.412,0.329,0.44,0.429,0.445,0.468,0.934,0.872,1.01,0.747,0.759,–,1.02,1,1.13,1.15
NCI-H1975,0.401,0.352,0.323,0.376,0.394,0.415,0.601,0.367,0.379,0.415,0.947,0.785,0.732,0.95,1.04,1.19,1.18,1.14,1.17,1.01
NCI-H1993,0.643,0.554,0.388,0.6,0.507,0.699,0.54,0.561,0.588,0.594,0.789,0.74,0.796,0.556,0.549,0.972,0.935,0.993,0.929,0.898
NCI-H2009,0.348,0.358,0.313,0.319,0.297,0.372,0.333,0.41,0.417,0.328,1.17,1.19,–,1.2,0.986,1.02,1.27,1.2,1.25,1.03
NCI-H2023,0.212,0.195,0.209,0.174,0.195,0.235,0.203,0.246,0.227,0.13,0.759,0.737,1.11,0.735,0.709,0.887,1.08,1.06,1.04,0.652
NCI-H2085,0.511,0.501,0.512,0.548,0.491,0.525,0.53,0.581,0.598,0.611,0.697,0.882,0.861,1.05,0.971,1.03,1.14,1.06,1.08,1.03
NCI-H2087,0.312,0.218,0.353,0.224,0.249,0.227,0.328,0.289,0.315,0.202,0.973,–,1.13,1.1,0.818,1.04,1.06,1.08,1.05,0.968
NCI-H2126,0.625,0.573,0.59,0.53,0.539,0.626,0.604,0.569,0.597,0.572,1.06,1.05,1.14,0.889,0.795,0.8,0.843,0.896,0.861,0.849
NCI-H2170,0.453,0.422,0.459,0.463,0.464,0.441,0.477,0.461,0.421,0.466,0.949,0.983,0.917,1.02,0.958,0.705,0.528,0.632,0.576,0.645
NCI-H2347,0.584,0.606,0.57,0.58,0.503,0.588,0.67,0.593,0.601,0.631,1.16,0.716,1.06,0.843,0.826,0.76,0.763,0.594,0.88,0.833
NCI-H2405,0.719,0.781,–,0.689,0.757,0.733,0.738,0.789,0.788,0.697,1.06,0.948,–,0.98,1.04,0.836,–,1,0.859,1.08
NCI-H3122,0.476,0.459,0.454,0.345,0.415,0.475,0.44,0.42,0.426,0.514,0.983,1.01,0.938,1.05,0.969,1.05,0.985,1.03,1,1.03
